Laboratory results published in patent US6716813B2, “Use of antimicrobial proteins and peptides for the treatment of otitis media and paranasal sinusitis” (priority 2000, dated 2004).
Where two headings read alike, the source gives them in different places. Positions of bridges follow the written chain, without caps; N, C: chain ends. No end group written: not given here.

Experiments:
NTHi strain12 = format: cell-based, nontypeable Haemophilus influenzae; conditions: for effect of salt on the growth inhibitory effect against NTHi: 100 mM NaCl in gel
Experimental: (§1) The bacteria used in the following examples were cultured as follows: Stocks of NTHi12 and M. catarrhalis […] (generous gift of Dr. Xin-Xing Gu) were maintained at -80° C. For experiments, the bacteria were plated on chocolate agar and incubated overnight at 37° C. in 5% CO2. A single colony was then picked and transferred to 10 ml of brain heart infusion (BHI, Becton Dickinson, Cockeysville, Md.), supplemented with hemin (10 μg/ml, Sigma, St. Louis, Mo.) and NAD (10 μg/ml, Sigma, St. Louis, Mo.), and allowed to grow overnight. In the morning, 1/10 volume of the overnight culture was transferred to fresh medium and incubated for 3-hours. The subculture was then washed twice with 10 mM sodium phosphate and the O.D. at 620 nm was determined. For the S. pneumoniae serotypes 3 and 6B (generous gift of Dr. Xin-Xing Gu), a 50 μl aliquot of the -80° C. stock was thawed on ice, added to 10 ml of Todd-Hewitt broth (THB, Becton Dickinson, Cockeysville, Md.) and cultured overnight. One tenth of the volume of the overnight culture was then transferred to fresh medium and incubated for 3-hours. The subculture was then washed twice with 10 mM sodium phosphate and the O.D. at 620 nm was determined. The radial assay method of […] and coworkers was used, with minor modifications ([…] et al., 1991). The subcultured bacteria (4×10^6 CFU/10 ml underlay gel) were mixed with melted underlay gel at 42° C. (0.1×culture broth-BHI for NTHi and Moraxella and THB for S. pneumoniae-10 mM sodium phosphate, 0.8% low electroendosmosis (EEO)-type agarose) and poured into 8 cm×8 cm square petri plates. The gel was allowed to solidify in the petri plates and wells were punched out with a calibrated 200 μl micropipette tip, cut off at the 50 μl mark (approximately 3 mm). The antimicrobial peptides and proteins were dissolved in 0.01% acetic acid and 4 μl was added to each well. The plates were then incubated for 3 hours at 37° C. in the 5% CO2 incubator. They were next overlaid with the overlay gel (0.5×culture broth, 10 mM sodium phosphate, 0.8% low EEO-type agarose) and covered. The plates were then allowed to incubate overnight at 37° C. in a 5% CO2. The diameter of the zones of inhibition produced by each of the antimicrobial molecules against the OM pathogens (NTHi, M. catarrhalis and S. pneumoniae) was then measured in three separate experiments and the average and standard deviation were calculated. Physiologically, salt concentrations vary depending on the site. However, typically they can be as high as 150 mM. Thus, the salt sensitivity of the antimicrobial molecules was tested. NaCl was added to the gel in Example 2 to obtain a final concentration of 100 mM.

[1] = test system: M. catarrhalis strain 035E; format: cell-based, Moraxella catarrhalis; conditions: for Diameter of the inhibition zone, M. catarrhalis: no added NaCl, average of 3 experiments ± SD; for effect of salt on the growth inhibitory effect against M. catarrhalis: 100 mM NaCl in gel
Experimental: as §1

S. pneumoniae serotype 3 [2] = format: cell-based, Streptococcus pneumoniae; conditions: for effect of salt on the growth inhibitory effect against S. pneumoniae serotype 3: 100 mM NaCl in gel
Experimental: as §1

[3] = test system: S. pneumoniae serotype 6B; format: cell-based, Streptococcus pneumoniae; conditions: for effect of salt on the growth inhibitory effect against S. pneumoniae serotype 6B: 100 mM NaCl in gel
Experimental: as §1

[4] = test system: non-typeable Haemophilus influenzae (NTHi); format: cell-based; conditions: 10 μg/ml
Experimental: The ability of a few of these innate immune mediators: human milk lysozyme (Lz), human β-defensins (HBD) 1 and 2 and human milk lactoferrin (LF) to inhibit the growth of non-typeable Haemophilus influenzae (NTHi) at other concentrations was also investigated using a different type of assay, a colony formation assay. The molecules were tested separately, as well as in combination, and the effect on NTHi growth was determined using a colony formation assay. […] In previous studies, it was shown that the concentration of lysozyme in middle ear effusion can be as high as 3.7 mg/ml and thus the concentrations used in these studies are well within the physiological range. Incubating the bacteria with 10 μg/ml of either human β-defensin 1 or 2 produced an even more pronounced effect, with close to a 95% reduction in the number of colonies. […] For example, the bacteria may be more sensitive to the antimicrobials in a liquid assay, such as the colony forming assay.

NTHi = assay: ultrastructural analysis (electron microscopy); format: cell-based, nontypeable Haemophilus influenzae
Experimental: (§2) […] The bacterial pellets were left in the fixative at 4° C. for 2 hr, post-fixed in 2% osmium tetroxide, dehydrated in ethanol and embedded in Eponate 12 (Ted Pella, Redding, Calif.). Sections were mounted in coated specimen grids, contrasted with uranyl acetate and lead citrate and examined in a transmission electron microscope (CM120 BioTwin, FEI-Philips, Hillsboro, Oreg.) operating at 80 kV. Images were recorded on photographic film and were subsequently digitized.

S. pneumoniae serotype 3 [5] = assay: ultrastructural analysis (electron microscopy); format: cell-based, Streptococcus pneumoniae; conditions: three-hour treatment
Experimental: (§3) Electron microscopy was performed by treating the bacterial cultures with antimicrobial protein or peptide for 3 hours, mixing with an equal volume of 5% buffered glutaradehyde (pH 7.4) and centrifuging (5000×g, for 20 minutes). The bacterial pellets were left in the fixative at 4° C. for 2 hr, post-fixed in 2% osmium tetroxide, dehydrated in ethanol and embedded in Eponate 12 (Ted Pella, Redding, Calif.). Sections were mounted in coated specimen grids, contrasted with uranyl acetate and lead citrate and examined in a transmission electron microscope (CM120 BioTwin, FEI-Philips, Hillsboro, Oreg.) operating at 80 kV. Images were recorded on photographic film and were subsequently digitized.

M. catarrhalis = assay: ultrastructural analysis (electron microscopy); format: cell-based, Moraxella catarrhalis
Experimental: as §2

[6] = test system: S. pneumoniae serotype 6B; assay: ultrastructural analysis (electron microscopy); format: cell-based, Streptococcus pneumoniae; conditions: 10 μg/ml, three-hour treatment
Experimental: as §3

[7] = 40 μg per well, equivalent to 10 mg/ml
[8] = 4 and 10 μg, equivalent to 1 and 2.5 mg/ml

β-defensin 1 (GNFLTGLGHRSDHYNCVSSGGQCLYSACPIFTKIQGTCYRGKAKCCK; not fully specified; cysteine pairing not given here) [HBD-1, human beta defensin 1, cationic antimicrobial peptide produced by epithelial cells]
effect of salt on the growth inhibitory effect against NTHi (NTHi strain12): completely blocked | Diameter of the inhibition zone, M. catarrhalis ([1]; 10 μg in 4 μl per well): 7.7 ± 0.6 mm | effect of salt on the growth inhibitory effect against M. catarrhalis [1]: completely blocked | effect on growth of M. catarrhalis ([1]; high dose, 10 μg, equivalent to 2.5 mg/ml): effective | effect of salt on the growth inhibitory effect against S. pneumoniae serotype 3 (S. pneumoniae serotype 3 [2]): completely blocked | effect of salt on the growth inhibitory effect against S. pneumoniae serotype 6B [3]: completely blocked | reduction in the number of colonies [4]: ~95% | ultrastructural changes of NTHi (NTHi; 10 μg/ml, 3 hours): Morphological changes were also apparent

human lysozyme [hLz]
effect of salt on the growth inhibitory effect against NTHi (NTHi strain12): completely blocked | effect on growth of NTHi (NTHi strain12; dose not given): no effect | Diameter of the inhibition zone, M. catarrhalis ([1]; 40 μg in 4 μl per well): 4 ± 1.7 mm | effect on growth of M. catarrhalis [1, 7]: slight but visible inhibition | effect of salt on the growth inhibitory effect against M. catarrhalis [1]: completely blocked | effect of salt on the growth inhibitory effect against S. pneumoniae serotype 3 (S. pneumoniae serotype 3 [2]): completely blocked | effect on growth of S. pneumoniae serotype 3 (S. pneumoniae serotype 3 [2]; dose not given): appeared to enhance the growth | Diameter of the inhibition zone, S. pneumoniae 6B ([3]; 40 μg in 4 μl per well, no added NaCl, average of 3 experiments ± SD): 5 ± 1.7 mm | effect on growth of S. pneumoniae serotype 6B [3, 7]: slight but visible inhibition | effect of salt on the growth inhibitory effect against S. pneumoniae serotype 6B [3]: completely blocked | ultrastructural changes of NTHi (NTHi; 100 μg/ml, 3 hour): Few completely lysed bacteria were observed | ultrastructural changes of NTHi (NTHi; 100 μg/ml, 3 hour, listed as human milk lysozyme): extrusion of the outer membrane could clearly be seen | ultrastructural changes of NTHi (NTHi; 1 mg/ml, 3 hour): blebbing of the membranes with extrusion of the cytoplasmic contents into the blebs | ultrastructural changes of NTHi, one hour compared with 3 hours (NTHi; one hour treatment): similar | ultrastructural changes of S. pneumoniae serotype 3 (S. pneumoniae serotype 3 [5]; 1 mg/ml): many fewer bacteria appear to be lysed | ultrastructural changes of M. catarrhalis (M. catarrhalis; 1-minute treatment): formation of blebs

GIGDPVTCLKSGAICHPVFCPRRYKQIGTCGLPGTKCCKKP (disulfide 8-37, 15-30, 20-38) [HBD-2, β-defensin 2]
effect of salt on the growth inhibitory effect against NTHi (NTHi strain12): did not inhibit the activity | effect on growth of NTHi (NTHi strain12; [8]): significantly inhibited the growth | effect of salt on the growth inhibitory effect against M. catarrhalis [1]: did not inhibit the activity | effect on growth of M. catarrhalis [1, 8]: significantly inhibited the growth | effect of salt on the growth inhibitory effect against S. pneumoniae serotype 3 (S. pneumoniae serotype 3 [2]): blocked the effect | effect on growth of S. pneumoniae serotype 3 (S. pneumoniae serotype 3 [2]; [8]): significantly inhibited the growth | effect of salt on the growth inhibitory effect against S. pneumoniae serotype 6B [3]: blocked the effect | effect on growth of S. pneumoniae serotype 6B [3, 8]: significantly inhibited the growth | reduction in the number of colonies [4]: ~95% | ultrastructural changes of NTHi (NTHi; 10 μg/ml, 3 hours): blebbing of the membranes with extrusion of the cytoplasmic contents into the blebs | ultrastructural changes of NTHi (NTHi; 10 μg/ml, 3 hours, listed as human β-defensin 2): Morphological changes were also apparent | ultrastructural changes of S. pneumoniae serotype 3 (S. pneumoniae serotype 3 [5]; 10 μg/ml): disappearance of the capsule in certain regions and the lysis of the bacteria | ultrastructural changes of S. pneumoniae serotype 6B [6]: damage to the capsule and condensation of the cytoplasmic material | ultrastructural changes of M. catarrhalis (M. catarrhalis; 30-minute incubation): substantial damage to the cells
